Data as given in patent publication US20200237743A1, “CRAC CHANNEL MODULATORS FOR TREATING ESOPHAGEAL CANCER” (Rhizen Pharmaceuticals SA, priority 2017, published 2020).

Legend:
[1] = tested on: NF-κB/p65 nuclear translocation in KYSE-150 cells; assay: NF-κB/p65 nuclear translocation upon serum stimulation in ESCC cells; format: cell-based, human; settings: 10% FBS stimulation 1 h (about 84% without treatment)
Experimental: (§1) Compound (A) was tested on blocking nuclear factor kappa B (NF-κB/p65) nuclear translocation upon serum stimulation in ESCC cells. KYSE-150 cells were starved in medium supplemented with 0.1% FBS for 24 h. […] Upon 10% FBS stimulation for 1 h, NF-κB/p65 appeared to translocate to nuclei evidenced by co-localization of nuclei in about 84% of KYSE-150 cells.

KYSE-780 = assay: Anti-proliferative effect in human ESCC cell lines (MTT assay); format: cell-based; settings: KYSE-780, MTT, 48-72 h incubation, read-out: IC50, cell viability
[2] = tested on: NF-κB/p65 in tumor tissues; assay: Immunofluorescence staining of xenograft tumor tissues (nuclear NF-κB/p65, cyclin D1); format: in vivo, mouse
Experimental: (§2) The anti-tumor effect of Compound (A) was determined in a KYSE-150 mouse xenograft model. Briefly, 10^6 cells were injected into the flank region. Mice were randomized according to body weight into two groups of five. A week after tumor cell injection, mice either received the vehicle or intra-peritoneal administration of Compound (A) at 20 mg/kg every 2 days for a 2 week period. At the end of the study period, animals were sacrificed and the tumors harvested.
as §1

KYSE-30 = assay: Anti-proliferative effect in human ESCC cell lines (MTT assay); format: cell-based; settings: KYSE-30, MTT, 48-72 h incubation, read-out: IC50, cell viability
Experimental: (§3) ESCC cell lines (KYSE-30, KYSE-150, KYSE-790, and KYSE-70) were plated in 96-well plates and incubated with desired concentrations of Compound A for 48-72 h. At the end of the incubation period, MTT (3-(4,5-dimethylthiazol-2-yl)-2,5-diphenyltetrazolium bromide) was added. The plate was placed on a shaker for 5 min to mix the formazan and the optical density at 560 nm was measured on a spectrophotometer. Data were plotted using Graphpad Prism for calculation of the IC50 concentrations.

KYSE-70 = assay: as above; format: cell-based; settings: KYSE-70, MTT, 48-72 h incubation, read-out: IC50, cell viability
Experimental: as §3

KYSE-150 = assay: as above; format: cell-based; settings: KYSE-150, MTT, 48-72 h incubation, read-out: IC50, cell viability
Experimental: as §3

[3] = tested on: KYSE-150 mouse xenograft model; assay: Anti-tumor effect in esophageal cancer xenograft; format: in vivo; settings: 20 mg/kg intra-peritoneal every 2 days for 2 weeks, KYSE-150 xenograft mice
Experimental: as §2

SMILES | number of cells with NF-κB/p65 nuclear localization ([1]; 20 μM) [%] | IC50 (KYSE-780) [µM] | number of cells with NF-κB/p65 nuclear localization ([1]; 10 μM) [%] | nuclear NF-κB/p65 positive cells number in tumor tissues ([2]; immunofluorescence of tumor tissues, 41% in control animals) [%] | expression of cyclin D1 in tumors compared with control group animals ([2]; tumors removed from treated animals) | IC50 (KYSE-30) [µM] | IC50 (KYSE-70) [µM] | IC50 (KYSE-150) [µM] | tumor growth compared to vehicle treated control group [3]
Cc1nnsc1C(=O)Nc1ccc(-n2nc(C(F)(F)F)cc2C(F)(F)F)cc1 [BTP-2, reference compound] | 8.53 | – | – | – | – | – | – | – | –
O=C(Cc1ccc2ncccc2c1)Nc1ccc(-n2nc(C3CC3)cc2C2CC2)cc1 [Compound (A), N-(4-(3,5-dicyclopropyl-1H-pyrazol-1-yl)phenyl)-2-(quinolin-6-yl)acetamide] | – | 5.5 | 10.52 | 9 | dramatically reduced | 1.2 | 1.4 | 1.4 | significantly reduced tumor growth
